# Measurements: patent publication US20120156771A1, “FUNCTIONAL DISRUPTION OF AN IMMUNOGLOBULIN GENE IN AN AVIAN EMBRYONIC STEM CELL” (Origen Therapeutics, Inc., priority 2002, published 2012)
# System: chicken embryonic stem cells
# Experiment: Titration kill curve: morphology of cES cells under puromycin or neomycin selection
# Format: cell-based
# Design: key to Morphology of cES cells: ES: ES cells are present.; diff: ES cells are differentiated.; gone: no morphologically recognizable cells are present
# Protocol: In a preferred embodiment, the concentration of puromycin required for selecting transfected cells is calculated as a titration kill curve. Titration kill curves for chicken embryonic stem cells are established by exposing cells in culture to puromycin concentrations varying from 0.0 to 1.0 μg/ml for 10 days (Table 7) and neomycin concentrations varying from 0.0 to 200 μg/ml (Table 8). The medium is changed every 2 days and fresh puromycin or neomycin is added. […] Puromycin concentrations of 0.3-1.0 μg/ml are used for selection of the transfected cultures. Neomycin concentrations over 40 μg/ml eliminated all cES cells within 7 days (Table 8).
substance,measurement,setting,value
neomycin,Morphology of cES cells,"neomycin 10 μg/ml, day 1 under selection",ES
same,Morphology of cES cells,"neomycin 10 μg/ml, day 2 under selection",ES
same,Morphology of cES cells,"neomycin 10 μg/ml, day 3 under selection",ES
same,Morphology of cES cells,"neomycin 10 μg/ml, day 4 under selection",ES
same,Morphology of cES cells,"neomycin 10 μg/ml, day 5 under selection",ES
same,Morphology of cES cells,"neomycin 10 μg/ml, day 6 under selection",ES
same,Morphology of cES cells,"neomycin 10 μg/ml, day 7 under selection",ES
same,Morphology of cES cells,"neomycin 10 μg/ml, day 8 under selection",ES
same,Morphology of cES cells,"neomycin 10 μg/ml, day 9 under selection",ES
same,Morphology of cES cells,"neomycin 10 μg/ml, day 10 under selection",ES
same,Morphology of cES cells,"neomycin 20 μg/ml, day 1 under selection",ES
same,Morphology of cES cells,"neomycin 20 μg/ml, day 2 under selection",ES
same,Morphology of cES cells,"neomycin 20 μg/ml, day 3 under selection",ES
same,Morphology of cES cells,"neomycin 20 μg/ml, day 4 under selection",ES
same,Morphology of cES cells,"neomycin 20 μg/ml, day 5 under selection",ES
same,Morphology of cES cells,"neomycin 20 μg/ml, day 6 under selection",ES
same,Morphology of cES cells,"neomycin 20 μg/ml, day 7 under selection",ES
same,Morphology of cES cells,"neomycin 20 μg/ml, day 8 under selection",ES
same,Morphology of cES cells,"neomycin 20 μg/ml, day 9 under selection",ES
same,Morphology of cES cells,"neomycin 20 μg/ml, day 10 under selection",ES
same,Morphology of cES cells,"neomycin 30 μg/ml, day 1 under selection",ES
same,Morphology of cES cells,"neomycin 30 μg/ml, day 2 under selection",ES
same,Morphology of cES cells,"neomycin 30 μg/ml, day 3 under selection",ES
same,Morphology of cES cells,"neomycin 30 μg/ml, day 4 under selection",ES
same,Morphology of cES cells,"neomycin 30 μg/ml, day 5 under selection",ES
same,Morphology of cES cells,"neomycin 30 μg/ml, day 6 under selection",ES
same,Morphology of cES cells,"neomycin 30 μg/ml, day 7 under selection",ES/Diff
same,Morphology of cES cells,"neomycin 30 μg/ml, day 8 under selection",ES/diff
same,Morphology of cES cells,"neomycin 30 μg/ml, day 9 under selection",Diff
same,Morphology of cES cells,"neomycin 40 μg/ml, day 1 under selection",ES
same,Morphology of cES cells,"neomycin 40 μg/ml, day 2 under selection",ES
same,Morphology of cES cells,"neomycin 40 μg/ml, day 3 under selection",ES
same,Morphology of cES cells,"neomycin 40 μg/ml, day 4 under selection",ES
same,Morphology of cES cells,"neomycin 40 μg/ml, day 5 under selection",ES/Diff
same,Morphology of cES cells,"neomycin 40 μg/ml, day 7 under selection",dead
same,Morphology of cES cells,"neomycin 40 μg/ml, day 8 under selection",gone
same,Morphology of cES cells,"neomycin 40 μg/ml, day 9 under selection",gone
same,Morphology of cES cells,"neomycin 40 μg/ml, day 10 under selection",gone
same,Morphology of cES cells,"neomycin 50 μg/ml, day 1 under selection",ES
same,Morphology of cES cells,"neomycin 50 μg/ml, day 2 under selection",ES
same,Morphology of cES cells,"neomycin 50 μg/ml, day 3 under selection",ES
same,Morphology of cES cells,"neomycin 50 μg/ml, day 4 under selection",ES/Diff
same,Morphology of cES cells,"neomycin 50 μg/ml, day 5 under selection",ES/Diff
same,Morphology of cES cells,"neomycin 50 μg/ml, day 8 under selection",gone
same,Morphology of cES cells,"neomycin 50 μg/ml, day 9 under selection",gone
same,Morphology of cES cells,"neomycin 50 μg/ml, day 10 under selection",gone
same,Morphology of cES cells,"neomycin 60 μg/ml, day 1 under selection",ES
same,Morphology of cES cells,"neomycin 60 μg/ml, day 2 under selection",ES
same,Morphology of cES cells,"neomycin 60 μg/ml, day 3 under selection",ES
same,Morphology of cES cells,"neomycin 60 μg/ml, day 4 under selection",gone
same,Morphology of cES cells,"neomycin 60 μg/ml, day 5 under selection",Gone
same,Morphology of cES cells,"neomycin 60 μg/ml, day 6 under selection",gone
same,Morphology of cES cells,"neomycin 60 μg/ml, day 7 under selection",gone
same,Morphology of cES cells,"neomycin 60 μg/ml, day 8 under selection",gone
same,Morphology of cES cells,"neomycin 60 μg/ml, day 9 under selection",gone
same,Morphology of cES cells,"neomycin 60 μg/ml, day 10 under selection",gone
same,Morphology of cES cells,"neomycin 100 μg/ml, day 1 under selection",ES/Diff
same,Morphology of cES cells,"neomycin 100 μg/ml, day 2 under selection",Diff
same,Morphology of cES cells,"neomycin 100 μg/ml, day 3 under selection",dead
same,Morphology of cES cells,"neomycin 100 μg/ml, day 4 under selection",gone
same,Morphology of cES cells,"neomycin 100 μg/ml, day 5 under selection",Gone
same,Morphology of cES cells,"neomycin 100 μg/ml, day 6 under selection",gone
same,Morphology of cES cells,"neomycin 100 μg/ml, day 7 under selection",gone
same,Morphology of cES cells,"neomycin 100 μg/ml, day 8 under selection",gone
same,Morphology of cES cells,"neomycin 100 μg/ml, day 9 under selection",gone
same,Morphology of cES cells,"neomycin 100 μg/ml, day 10 under selection",gone
same,Morphology of cES cells,"neomycin 150 μg/ml, day 2 under selection",dead
same,Morphology of cES cells,"neomycin 150 μg/ml, day 3 under selection",dead
same,Morphology of cES cells,"neomycin 150 μg/ml, day 4 under selection",gone
same,Morphology of cES cells,"neomycin 150 μg/ml, day 5 under selection",Gone
same,Morphology of cES cells,"neomycin 150 μg/ml, day 6 under selection",gone
same,Morphology of cES cells,"neomycin 150 μg/ml, day 7 under selection",gone
same,Morphology of cES cells,"neomycin 150 μg/ml, day 8 under selection",gone
same,Morphology of cES cells,"neomycin 150 μg/ml, day 9 under selection",gone
same,Morphology of cES cells,"neomycin 150 μg/ml, day 10 under selection",gone
same,Morphology of cES cells,"neomycin 200 μg/ml, day 2 under selection",dead
same,Morphology of cES cells,"neomycin 200 μg/ml, day 3 under selection",gone
same,Morphology of cES cells,"neomycin 200 μg/ml, day 4 under selection",gone
same,Morphology of cES cells,"neomycin 200 μg/ml, day 5 under selection",Gone
same,Morphology of cES cells,"neomycin 200 μg/ml, day 6 under selection",gone
same,Morphology of cES cells,"neomycin 200 μg/ml, day 7 under selection",gone
same,Morphology of cES cells,"neomycin 200 μg/ml, day 8 under selection",gone
same,Morphology of cES cells,"neomycin 200 μg/ml, day 9 under selection",gone
same,Morphology of cES cells,"neomycin 200 μg/ml, day 10 under selection",gone
same,Neomycin concentrations that eliminated all cES cells,within 7 days,over 40 μg/ml
